Laboratory results published in patent US20040152684A1, “Use of antigestagens for inhibiting accelerated endometrial maturation during infertility treatment” (priority 2001, published 2004).

System: endometrium of the superovulated pseudopregnant rabbit
Assay: Endometrial receptivity in the superovulated pseudopregnant rabbit model
Format: in vivo, New Zealand White rabbits
Conditions: for endometrial maturation (in words): compared with Group 1 controls not subject to ovarian hyperstimulation; for Mc-Phail [x ± SD] (endometrial transformation index, 1 no to 4 high transformation) / Uterine wet weight [x ± SD]: measured at d5 p.hCG; for Uteroglobin ISH [expression in luminal epithelial cells]: uteroglobin mRNA at d5 p.hCG
Method: The effects of a 17α-fluoralkylated progesterone receptor antagonist on endometrial activity was evaluated in the superovulated pseudopregnant rabbit model. The pseudopregnancy of the rabbit has proven to be a model system for the human luteal phase (Beier and Kuhnel, 1973, Hormone Res. 4:1-27; Fischer et al., 1985, Fertilitat 1:101-109. In this species, ovarian stimulation induces an advancement of secretory transformation (Delbos-Winter et al., 1987, Fertilitat 3: 87-93) as well as an enhancement of gland formation.
A total of 25 sexually mature nulliparous New Zealand White rabbits with a body weight of 3.1 to 4.0 kg were used for the analysis. The animals were divided into two control groups (groups 1 and 2) and three treatment groups (groups 3-5), with five animals in each group.
Control group 1 received 75 international units (IU) of human chorionic gonadotropin (hCG) administered intravenously in order to induce pseudopregnancy. The day of hCG-injection was designated as day 0 of pseudopregnancy (d0 p.hCG).
Control group 2 and treatment groups 3, 4, and 5 were gonadotropin-stimulated with 5 IU of the human menopausal gonadotropin (HMG) Pergonal® (Serono Pharma, Unterschleipheim, Germany) for 3 days, by subcutaneous injection, in order to induce multiple follicular growth. Pseudopregnancy was induced by the administration of human chorionic gonadotropin (hCG) as described for control group 1 above.
Treatment groups 3, 4 and 5 also received a single per oral application of a 17α-fluoralkylated progesterone receptor antagonist (Compound A) two days after pseudopregnancy induction with the administration of human chorionic gonadotropin (d2 p.hCG).
Animals in all treatment groups were sacrificed on day 5 following pseudopregnancy induction (d5 p.hCG), and uteri were removed. Relative uterine wet weights were determined (in mg/100 g body weight) and a part of the uterus was snap frozen in liquid nitrogen for determination of uteroglobin expression by in situ hybridization. Uteroglobin expression is known as a highly sensitive parameter for determination of endometrial receptivity (Beier, H. M., 1968, Biochem Biophys. Acta. 160:289-291; Beier, H. M., 1982, in: Beier, H. M. and Karlson, P. (eds.), Proteins and Steroids in Early Pregnancy), and is a marker for secretory activity (Beier, 1976, J. Reprod. Fertil. Suppl. 25:53-69) and differentiation of the endometrial epithelium (Krusche & Beier, 1994, Ann. Anat. 176:23-31). In situ hybridization for detection of uteroglobin expression was conducted as previously described in Krusche & Beier, above. Another piece of the uterus was removed and processed for paraffin histology in order to determine the endometrial transformation status using the McPhail-Index (McPhail M k, 1934, J. Phys. 83:145-156) The McPhail Index reflects different degrees of progestogenic (transforming) activity in the rabbit endometrium:
3. pronounced transformation

[1] = Group 3: HMG + hCG, single per oral 0.1 mg/kg on d2 p.hCG
[2] = Group 4: HMG + hCG, single per oral 1 mg/kg on d2 p.hCG
[3] = Group 5: HMG + hCG, single per oral 10 mg/kg on d2 p.hCG

CC(=O)c1ccc([C@H]2C[C@@]3(C)[C@@H](CC[C@@]3(O)C(F)(F)C(F)(F)F)[C@@H]3CCC4=CC(=O)CCC4=C32)cc1 [Compound A, 11β-(4-acetylphenyl)-17β-hydroxy-17α-(1,1,2,2,2-pentafluoroethyl)estra-4,9-dien-3-one]
endometrial maturation (in words) (0.1 mg/kg (Group 3)): roughly corresponded with that of control animals which were not subject to ovarian hyperstimulation
endometrial maturation (in words) (1 mg/kg (group 4)): delayed the timing of maturation beyond that observed in animals which were not subject to hyperovarian stimulation
endometrial maturation (in words) (10 mg/kg (group 5)): delayed the timing of maturation beyond that observed in animals which were not subject to hyperovarian stimulation
Mc-Phail [x ± SD] (endometrial transformation index, 1 no to 4 high transformation) [1]: 3.0 ± 0.1
Uterine wet weight [x ± SD] [1]: 305 ± 48 mg/kg
Uteroglobin ISH [expression in luminal epithelial cells] [1]: very high
Mc-Phail [x ± SD] (endometrial transformation index, 1 no to 4 high transformation) [2]: 1.5 ± 0.3
Uterine wet weight [x ± SD] [2]: 227 ± 56 mg/kg
Uteroglobin ISH [expression in luminal epithelial cells] [2]: very low
Mc-Phail [x ± SD] (endometrial transformation index, 1 no to 4 high transformation) [3]: 1.1 ± 0.3
Uterine wet weight [x ± SD] [3]: 144 ± 30 mg/kg
Uteroglobin ISH [expression in luminal epithelial cells] [3]: absent
